A short description of series [1]: Solubility in ethylene glycol. Conditions: organic solvent or mixture.
The nature of series [2]: Refractive index at 589.3 nm. Format: physicochemical. Conditions: neat compound. As to the method:
(§1) The following examples represent a variety of liquid lenses prepared according to Varioptic A39N0 design. The Varioptic A39N0 lens design includes a mechanical aperture of about 3.9 mm, a non-conductive fluid layer thickness of about 0.6 mm, and a conductive fluid layer thickness of about 1.8 mm. The properties measured for these electrowetting optical devices were performed at 20° C.
(§2) Example of the naphthalene based compounds disclosed herein have a listing of some of their physical properties listed below.

A further series can be described thus: Viscosity at 20° C. The class given is physicochemical. The conditions noted are these: neat compound. How it is done:
as §1, §2

The nature of series [3]: Density of naphthalene based compounds and liquid lens liquids. Conditions: for Density at 20° C.: neat compound. Details: Density at 20° C.: unit not given here. The class given is physicochemical.
Another series is described as follows: Solubility in water. Conditions: 20 °C.

Molecules are shown by their SMILES. In brackets after ≈: the same amount, converted by molar mass.

As to `CCCC[Si](C)(C)c1ccc2ccccc2c1` [IX, 2-dimethylbutylsilane naphthalene], the solubility (as a rule, the concentration that dissolves in the medium under given conditions) in series [1] (20 °C) stood at 1100 µg/mL (≈ 4.54 mM); in series [1] (85 °C), 2100 µg/mL (≈ 8.66 mM). Also, the “Index at 589.3 nm/20° C.” value in series [2] came to 1.57. The “Viscosity at 20° C.” value in “Viscosity at 20° C.” is 14.9 cSt. In series [3], the “Density at 20° C.” value worked out at 0.97.
For the compound `[CH3][Ge]([CH3])([CH3])[c]1ccc2ccccc2c1` [VI, 2-trimethylgermane naphthalene], the solubility in series [1] (20 °C) was determined as 3400 µg/mL; in series [1] (85 °C), 14800 µg/mL; in the series “Solubility in water” it was 6 µg/mL. Also, in series [2], the “Index at 589.3 nm/20° C.” value came out at 1.59. For the same compound, in the series “Viscosity at 20° C.”, the “Viscosity at 20° C.” value is on record as 6.1 cSt. The “Density at 20° C.” value in series [3] was 1.19.
`C[CH2][Ge]([CH2]C)([CH2]C)[c]1ccc2ccccc2c1` [VII, 2-triethylgermane naphthalene]: the solubility in series [1] (20 °C) is 1900 µg/mL; in series [1] (85 °C), 4200 µg/mL. For the same compound, the “Index at 589.3 nm/20° C.” value in series [2] is 1.58. In addition, the “Viscosity at 20° C.” value in the series “Viscosity at 20° C.” is 10.6 cSt. Further, the “Density at 20° C.” value in series [3] stood at 1.14.
Consider `C[Si](C)(C)c1ccc2ccccc2c1` [VIII, 2-trimethylsilane naphthalene], for which the “Index at 589.3 nm/20° C.” value in series [2] was found to be 1.58. Besides, in the series “Viscosity at 20° C.”, the “Viscosity at 20° C.” value was determined as 8.1 cSt. Also, in series [3], the “Density at 20° C.” value turned out to be 1.01.
Taken in the same sequence, the figures for `c1ccc(Sc2ccc3ccccc3c2)cc1` [X, 2-phenylsulfur naphthalene] were 1.69, 33.8 cSt and 1.16.
Consider `CCCCCCCC[Si](C)(C)c1ccc2ccccc2c1` [XI, 2-dimethyloctylsilane naphthalene], for which the solubility in series [1] (20 °C) worked out at 440 µg/mL (≈ 1.47 mM); in series [1] (85 °C), 680 µg/mL (≈ 2.28 mM). For the same compound, the “Index at 589.3 nm/20° C.” value in series [2] is given as 1.54. For the same compound, in “Viscosity at 20° C.”, the “Viscosity at 20° C.” value was determined as 25.9 cSt. The “Density at 20° C.” value in series [3] came out at 0.95.
For `Fc1cccc2ccccc12` [XII, 1-fluoronapthalene], in series [2], the “Index at 589.3 nm/20° C.” value was found to be 1.59. Moreover, in “Viscosity at 20° C.”, the “Viscosity at 20° C.” value amounted to 2.1 cSt. Moreover, the “Density at 20° C.” value in series [3] worked out at 1.13.
Take `CCc1ccc2ccccc2c1` [XIII, 2-ethylnaphthalene]: in series [2], the “Index at 589.3 nm/20° C.” value is recorded as 1.61. In addition, the “Viscosity at 20° C.” value in “Viscosity at 20° C.” was 3.9 cSt. For the same compound, the “Density at 20° C.” value in series [3] stood at 1.01. In addition, in series [3] (25° C.), the Density result was “about 1.01 g/cm^3”.
Turning to `CCCc1ccc2ccccc2c1` [XIV, 2-propylnaphthalene], the “Index at 589.3 nm/20° C.” value in series [2] came to 1.58. Besides, the “Density at 20° C.” value in series [3] is 0.98.
Compound `CCCCCCCCCCCC` [dodecane, reference compound] returned a Density in series [3] (comparative aliphatic oil, temperature not given) of 0.75 g/mL.

(Values after US11204492B2, “Naphtyl based high index hydrophobic liquids and transmission recovery agents for liquid lens formulations” (CORNING INCORPORATED, priority 2018, dated 2021).)
